According to patent US20140336109A1, “MODULATION OF GHRELIN LEVELS AND GHRELIN/UNACYLATED GHRELIN RATIO USING UNACYLATED GHRELIN” (Alize Pharma SAS, priority 2011, published 2014):
Where no end group is shown, it is not given here.

Columns and labels:
[1] = tested on: T2DM subjects; experiment: Side effects and laboratory safety parameters during UAG infusion; type: in vivo, human; settings: during infusions with UAG 3 and 10 μg/kg/hr, 15 hours
Experimental: A continuous overnight (15 hours) infusion of two doses of UAG (3 μg UAG/kg/hr and 10 μg UAG/kg/hr) versus placebo in a cross-over model on the AG concentrations was performed in eight overweight subjects with type 2 diabetes. FIG. 1 depicts a schematic representation of the study protocol. Glucose and insulin responses to a standard breakfast meal (SBM) in the subjects and reasonable metabolic control were assessed.
Study design—Single-center, investigator initiated, double blind and placebo controlled randomized study. During the first visit medical history, medication use and vital signs of subjects were checked. Blood samples were also taken for chemistry and hematology analysis. […]
Standard breakfast meal (SBM) consisted of: • 3 slices wheat bread; p1 3 portions of margarine; • 2 slices of cheese (48% fat); • 1 portion of jam; • 1 cup of whole milk; and • 1 boiled egg; for a total of 714 kcal (17% proteins; 46% fat; and 37% carbohydrates). […] At each of the 3 visits, the following safety parameters were assessed: hemoglobin, hematocrit, platelet count, WBC count, RBC count, and differential and were determined using Sysmex XE 2100, Firma Sysmex, Ecustraat 11, 4879 NP Etten-Leur. […] Serum glucose levels (using the in-house glucokinase assay) were also assessed every 30 minutes and starting before, and continuing for 4 hours after, the SBM. […]

[2] = U.S. Pat. Nos. 8,222,217 and 8,318,664; cited from earlier work
[3] = tested on: Sprague-Dawley rats; experiment: AG-induced food intake in rats; type: in vivo; settings: rat; i.p. 42 μg/kg + AG 13 μg/kg; 30 min, 1 h, 2 h
Experimental: With respect to the experimental data presented in FIG. 8, Sprague-Dawley rats of 7 weeks of age, weighing between 275 g and 300 g, were fed a pellet diet ad libitum and were singly housed in plastic cage. The experiment was performed at 2.5 h after the onset of the light cycle in freely fed rats. The rates were i.p. injected simultaneously with vehicle plus vehicle, vehicle+AG (13 μg/kg) or cyclised UAG (6-13) (SEQ ID NO: 25) (42 μg/kg)+AG (13 μg/kg). Immediately after the completion of the i.p. injection in rats, the night-ad-libitum food was removed and replaced by 2 pellets for each animal, previously weighed, placed into the top of the cage. Food intake was calculated as the difference between the food weight before and after the feeding period at each time interval (30 min, 1 h, and 2 h). Cumulative food intake was calculated by summating the values of the different time periods.

Compound | activity on glucose, insulin and lipid metabolisms relative to UAG full length [2] | further results
CC(C)C[C@H](NC(=O)[C@H](CCCCN)NC(=O)[C@H](C)NC(=O)[C@@H]1CCCN1C(=O)[C@@H]1CCCN1C(=O)[C@H](CCCCN)NC(=O)[C@H](CCCCN)NC(=O)[C@H](CO)NC(=O)[C@H](CCC(=O)O)NC(=O)[C@H](CCCCN)NC(=O)[C@H](CCCNC(=N)N)NC(=O)[C@H](CCC(N)=O)NC(=O)[C@H](CCC(N)=O)NC(=O)[C@@H](NC(=O)[C@H](CCCNC(=N)N)NC(=O)[C@H](CCC(N)=O)NC(=O)[C@H](Cc1cnc[nH]1)NC(=O)[C@H](CCC(=O)O)NC(=O)[C@@H]1CCCN1C(=O)[C@H](CO)NC(=O)[C@H](CC(C)C)NC(=O)[C@H](Cc1ccccc1)NC(=O)[C@H](CO)NC(=O)[C@H](CO)NC(=O)CN)C(C)C)C(=O)N[C@@H](CCC(N)=O)C(=O)N1CCC[C@H]1C(=O)N[C@@H](CCCNC(=N)N)C(=O)O [UAG] | – | laboratory evaluations (chemistry or parameters) [1]: no significant changes; side effects reported by subjects [1]: did not report more side effects than placebo
EHQRVQ [UAG (8-13)] | retain the activity of UAG full length | –
Glu-His-Gln-Arg (EHQR; listed as Homo sapiens) [UAG (8-11)] | retain the activity of UAG full length | –
Glu-His-Gln-Arg-Val (EHQRV; listed as Homo sapiens) [UAG (8-12)] | retain the activity of UAG full length | –
His-Gln-Arg (HQR; listed as Homo sapiens) [UAG (9-11)] | retain the activity of UAG full length | –
His-Gln-Arg-Val (HQRV; listed as Homo sapiens) [UAG (9-12)] | retain the activity of UAG full length | –
SPEHQRVQ [UAG (6-13)] | retain the activity of UAG full length | –
Ser-Pro-Glu-His-Gln-Arg-Val-Gln (cycl) (SPEHQRVQ; also: cyclic, linkage type not given here; listed as Homo sapiens) [cyclic UAG (6-13)] | – | orexigenic effects (food intake) induced by AG [3]: able to counteract the orexigenic effects induced by AG
